Results published in the Kinase Knowledgebase extract (Sharma et al. 2016).

Molecular target: EGFR (UniProt P00533)
Assay: Inhibition of EGFR Kinase Activity

Sequence of EGFR (P00533 whole entry, looked up): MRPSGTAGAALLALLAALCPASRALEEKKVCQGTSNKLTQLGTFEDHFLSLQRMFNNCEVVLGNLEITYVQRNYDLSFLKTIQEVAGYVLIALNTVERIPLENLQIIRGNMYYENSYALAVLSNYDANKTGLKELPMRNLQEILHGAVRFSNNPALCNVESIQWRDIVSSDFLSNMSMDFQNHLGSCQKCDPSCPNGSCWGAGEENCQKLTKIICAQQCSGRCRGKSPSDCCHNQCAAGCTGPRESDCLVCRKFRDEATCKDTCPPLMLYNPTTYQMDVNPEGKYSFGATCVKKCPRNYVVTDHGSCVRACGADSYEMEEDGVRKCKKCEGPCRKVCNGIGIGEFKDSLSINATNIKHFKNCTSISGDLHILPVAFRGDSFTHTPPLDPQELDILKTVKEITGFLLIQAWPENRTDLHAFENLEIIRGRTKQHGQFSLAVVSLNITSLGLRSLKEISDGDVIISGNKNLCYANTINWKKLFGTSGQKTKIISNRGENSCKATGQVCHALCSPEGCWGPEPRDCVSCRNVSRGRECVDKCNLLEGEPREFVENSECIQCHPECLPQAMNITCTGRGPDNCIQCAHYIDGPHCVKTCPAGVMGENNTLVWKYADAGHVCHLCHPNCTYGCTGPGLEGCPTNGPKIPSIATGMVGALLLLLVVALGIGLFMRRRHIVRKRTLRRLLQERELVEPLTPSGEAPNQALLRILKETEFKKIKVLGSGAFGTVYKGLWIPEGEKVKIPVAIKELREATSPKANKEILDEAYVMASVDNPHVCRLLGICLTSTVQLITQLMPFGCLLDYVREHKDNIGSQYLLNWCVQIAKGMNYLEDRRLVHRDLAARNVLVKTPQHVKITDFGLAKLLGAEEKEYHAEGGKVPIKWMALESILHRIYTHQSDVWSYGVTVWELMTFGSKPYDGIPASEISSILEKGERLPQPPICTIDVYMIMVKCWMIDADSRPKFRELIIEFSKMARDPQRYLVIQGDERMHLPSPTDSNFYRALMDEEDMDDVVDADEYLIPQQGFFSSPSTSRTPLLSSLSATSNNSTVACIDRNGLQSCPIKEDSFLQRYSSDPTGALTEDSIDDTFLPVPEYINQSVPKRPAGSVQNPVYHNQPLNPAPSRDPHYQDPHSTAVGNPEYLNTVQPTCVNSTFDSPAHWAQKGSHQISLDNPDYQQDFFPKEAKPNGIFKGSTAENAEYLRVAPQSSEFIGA

| SMILES | IC50 [µM] |
| --- | --- |
| C=CC(=O)Nc1cc(Nc2ncnc(N(C)c3ccc4c(cnn4Cc4ccccc4)c3)n2)ccc1OCCCC1CCN(C)CC1 | < 50 |
| C=CCC(=O)Nc1cccc(Nc2ncnc(Nc3cccc(Cl)c3)n2)c1 | < 50 |
| CC#CC(=O)Nc1cc(Nc2ncnc(Nc3ccc(OCc4ccccc4)c(Cl)c3)n2)ccc1OCCCN1CCOCC1 | < 50 |
| C=CC(=O)Nc1ccc(Nc2ncnc(N(C)c3ccc(OCCOC)c(OC)c3)n2)cc1 | < 50 |
| C=CC(=O)Nc1ccc(Nc2ncnc(N(C)c3cccc(Cl)c3)n2)cc1 | < 50 |
| C=CC(=O)Nc1ccc(Nc2ncnc(N(C)c3ccc4c(cnn4Cc4ccccc4)c3)n2)cc1 | < 50 |
| C=CC(=O)Nc1cc(Nc2ncnc(N(C)c3ccc4c(cnn4Cc4ccccc4)c3)n2)ccc1OCCCN1CCOCC1 | < 50 |
| C=CC(=O)Nc1ccc(Nc2ncnc(N(CC)c3ccc(F)c(Cl)c3)n2)cc1 | < 50 |
| C#CCC(=O)Nc1cccc(Nc2ncnc(NN3CCCc4cc(OC)ccc43)n2)c1 | < 50 |
| C=CCN(c1ccc2c(cnn2Cc2ccccc2)c1)c1ncnc(Nc2ccc(NC(=O)C=C)cc2)n1 | < 50 |
| C=CC(=O)Nc1cccc(Nc2ncnc(N(CC)c3ccc(OCCOC)c(OC)c3)n2)c1 | < 50 |
| C=CC(=O)Nc1cccc(Nc2ncnc(N(CC)c3ccc4c(cnn4Cc4ccccc4)c3)n2)c1 | < 50 |
| CC#CC(=O)Nc1cccc(Nc2ncnc(N(C)c3cccc(S(=O)(=O)c4ccc([N+](=O)[O-])cc4)c3)n2)c1 | < 50 |
| C=CC(=O)Nc1ccc(Nc2ncnc(Nc3cc(Cl)cc4ccccc34)n2)cc1 | < 50 |
| CC#CC(=O)Nc1cccc(Nc2ncnc(N(C)c3cccc(C(N)=O)c3)n2)c1 | < 50 |
| C=CC(=O)Nc1ccc(Nc2ncnc(NN3CCCc4c(Cl)cccc43)n2)cc1 | < 50 |
| CC#CC(=O)Nc1cccc(Nc2ncnc(N(C)c3ccc(OC)c(OC)c3)n2)c1 | < 50 |
| C=CC(=O)Nc1cccc(Nc2ncnc(Nc3ccc(F)c(Cl)c3)n2)c1 | < 50 |
| C=CC(=O)N(CCCN1CCOCC1)c1cccc(Nc2ncnc(Nc3ccc4c(cnn4Cc4ccccc4)c3)n2)c1 | < 50 |
| C=CC(=O)Nc1cccc(Nc2ncnc(N(CC)c3cccc(CC(=O)OC)c3)n2)c1 | < 50 |
| C=CC(=O)Nc1ccc(Nc2ncnc(N(CC)c3cccc(C)c3)n2)cc1 | < 50 |
| C=CC(=O)Nc1cccc(Nc2ncnc(N(CC)n3c(=O)[nH]c4ccccc43)n2)c1 | < 50 |
| C=CC(=O)Nc1cccc(Nc2ncnc(N(C)c3ccc(F)c(Cl)c3)n2)c1 | < 50 |
| C=CCN(c1cccc(C)c1)c1ncnc(Nc2ccc(NC(=O)C=C)cc2)n1 | < 50 |

| SMILES | IC50 [µM] |
| --- | --- |
| C=CC(=O)Nc1cc(Nc2ncnc(Nc3cccc(Cl)c3)n2)ccc1OCCCC1CCN(C)CC1 | < 50 |
| C=CC(=O)Nc1ccc(Nc2ncnc(Nc3cccc4ccccc34)n2)cc1 | < 50 |
| C=CC(=O)Nc1ccc(Nc2ncnc(NC3CC3c3ccccc3)n2)cc1 (stereo not given) | < 50 |
| C=CC(=O)Nc1cccc(Nc2ncnc(NN3CCCc4ccc(C(F)(F)F)cc43)n2)c1 | < 50 |
| CCN(c1ccc2NN(=Cc2c1)Cc3ccccn3)c4ncnc(Nc5cccc(NC(=O)C=C)c5)n4 | < 50 |
| C=CCN(c1ccc(OCCO)cc1)c1ncnc(Nc2ccc(NC(=O)C=C)cc2)n1 | < 50 |
| C=CC(=O)Nc1ccc(Nc2ncnc(N(C)c3ccc4c(cnn4Cc4ccccc4)c3)n2)cc1OC | < 50 |
| C=CC(=O)Nc1cccc(Nc2ncnc(N(CC)c3ccc(F)c(Cl)c3)n2)c1 | < 50 |
| C=CCC(=O)Nc1cccc(Nc2ncnc(Nc3ccc4NN(=Cc4c3)Cc5ccccn5)n2)c1 | < 50 |
| C=CCN(c1ncnc(Nc2cccc(NC(=O)C#CC)c2)n1)n1c(=O)n(C(=O)C(C)(C)C)c2ccccc21 | < 50 |
| C=CC(=O)Nc1ccc(Nc2ncnc(N(CC)c3cc(Cl)cc4ccccc34)n2)cc1 | < 50 |
| C=CC(=O)Nc1cccc(Nc2ncnc(Nc3ccc4c(ccn4Cc4ccccc4)c3)n2)c1 | < 50 |
| CC#CC(=O)Nc1cccc(Nc2ncnc(N(CC)c3cc(OC)c(OC)c(OCCN4CCOCC4)c3)n2)c1 | < 50 |
| C=CCN(c1ccc(OCc2ccccc2)cc1)c1ncnc(Nc2cccc(NC(=O)C#CC)c2)n1 | < 50 |
| C=CC(=O)Nc1cc(Nc2ncnc(NN3CCCc4ccc(Cl)cc43)n2)ccc1OCCCC1CCN(C)CC1 | < 50 |
| C=CCN(c1ncnc(Nc2cccc(NC(=O)C=C)c2)n1)C1CC1c1ccc(Cl)cc1 (stereo not given) | < 50 |
| CC#CC(=O)Nc1cccc(Nc2ncnc(N(CC)C3CC3c3ccccc3)n2)c1 (stereo not given) | < 50 |
| C=CC(=O)Nc1cccc(Nc2ncnc(Nc3ccc(S(=O)(=O)c4ccccc4)cc3)n2)c1 | < 50 |
| C=CC(=O)Nc1ccc(Nc2ncnc(N(C)c3cc(Cl)cc4ccccc34)n2)cc1 | < 50 |
| C=CC(=O)Nc1cccc(Nc2ncnc(Nc3cccc(C(N)=O)c3)n2)c1 | < 50 |
| C=CCN(c1ncnc(Nc2ccc(NC(=O)C=C)cc2)n1)C1CC1c1ccc(Cl)cc1 (stereo not given) | < 50 |
| C=CC(=O)Nc1ccc(Nc2ncnc(Nc3ccc(OCc4ccccc4)c(Cl)c3)n2)cc1 | < 50 |
| C=CC(=O)Nc1cc(Nc2ncnc(N(C)c3ccc(OCc4ccccc4)c(Cl)c3)n2)ccc1OCCCC1CCN(C)CC1 | < 50 |
| C=CCN(c1ccc2NN(=Cc2c1)Cc3ccccn3)c4ncnc(Nc5cccc(NC(=O)C=C)c5)n4 | < 50 |

| SMILES | IC50 [µM] |
| --- | --- |
| C=CC(=O)Nc1cc(Nc2ncnc(N(C)c3ccc4c(ccn4Cc4ccccc4)c3)n2)ccc1OCCCN1CCOCC1 | < 50 |
| C=CC(=O)Nc1cc(Nc2ncnc(N(C)c3cccc(Cl)c3)n2)ccc1OCCCC1CCN(C)CC1 | < 50 |
| C=CC(=O)Nc1cccc(Nc2ncnc(N(C)c3ccc(OCCOC)c(OC)c3)n2)c1 | < 50 |
| C=CC(=O)Nc1ccc(Nc2ncnc(Nc3ccc(OCCO)cc3)n2)cc1 | < 50 |
| C=CCN(c1ncnc(Nc2ccc(NC(=O)C=C)cc2)n1)N1CNc2ccccc21 | < 50 |
| C=CCN(c1ncnc(Nc2cccc(NC(=O)C=C)c2)n1)c1cc(Cl)cc2ccccc12 | < 50 |
| CC#CC(=O)Nc1cc(Nc2ncnc(Nc3ccc4c(cnn4Cc4ccccc4)c3)n2)ccc1OC | < 50 |
| C=CC(=O)Nc1cccc(Nc2ncnc(Nc3ccc(OCc4ccc(Cl)c(Cl)c4)c(C(F)(F)F)c3)n2)c1 | < 50 |
| C=CC(=O)Nc1cccc(Nc2ncnc(N(CC)c3cccc(Cl)c3)n2)c1 | < 50 |
| C=CC(=O)Nc1cc(Nc2ncnc(Nc3ccc4c(cnn4Cc4ccccc4)c3)n2)ccc1OC | < 50 |
| CC#CC(=O)Nc1cccc(Nc2ncnc(N(C)c3ccc(OCCO)cc3)n2)c1 | < 50 |
| CC#CC(=O)Nc1cccc(Nc2ncnc(N(C)c3ccc(OCc4ccccc4)cc3)n2)c1 | < 50 |
| CC#CC(=O)Nc1cc(Nc2ncnc(Nc3ccc(OCc4ccccc4)c(Cl)c3)n2)ccc1OCCCC1CCN(C)CC1 | < 50 |
| C=CC(=O)Nc1cccc(Nc2ncnc(Nc3ccc(OCc4ccccc4Br)c(Cl)c3)n2)c1 | < 50 |
| C=CC(=O)Nc1cccc(Nc2ncnc(N(C)c3cccc4ccccc34)n2)c1 | < 50 |
| CC#CC(=O)Nc1cccc(Nc2ncnc(N(CC)C3CC3c3ccc(Cl)cc3)n2)c1 (stereo not given) | < 50 |
| C=CCN(c1ncnc(Nc2ccc(NC(=O)C=C)cc2)n1)C1CC1c1ccccc1 (stereo not given) | < 50 |
| C=CC(=O)Nc1cccc(Nc2ncnc(N(CC)c3cc(OC)c(OC)c(OCCN4CCOCC4)c3)n2)c1 | < 50 |
| C=CC(=O)Nc1ccc(Nc2ncnc(N(CC)n3c(=O)n(C(=O)C(C)(C)C)c4ccccc43)n2)cc1 | < 50 |
| CC#CC(=O)Nc1cccc(Nc2ncnc(Nc3ccc(OCCC)c(OCCC)c3)n2)c1 | < 50 |
| C=CC(=O)Nc1cccc(Nc2ncnc(N(CC)c3cc(Cl)cc4ccccc34)n2)c1 | < 50 |
| C=CC(=O)Nc1cccc(Nc2ncnc(N(C)c3cccc(C(N)=O)c3)n2)c1 | < 50 |
| C=CC(=O)Nc1cc(Nc2ncnc(N(C)c3ccc4c(ccn4Cc4ccccc4)c3)n2)ccc1OCCCC1CCN(C)CC1 | < 50 |
| C=CC(=O)Nc1cccc(Nc2ncnc(N(CC)c3ccc(OCc4ccccc4)cc3)n2)c1 | < 50 |

| SMILES | IC50 [µM] |
| --- | --- |
| C=CCN(c1cc(OC)c(OC)c(OCCN2CCOCC2)c1)c1ncnc(Nc2cccc(NC(=O)C#CC)c2)n1 | < 50 |
| CC#CC(=O)Nc1cccc(Nc2ncnc(N(CC)c3ccc(F)c(Cl)c3)n2)c1 | < 50 |
| C=CC(=O)Nc1cccc(Nc2ncnc(N(C)c3cccc(S(=O)(=O)c4ccc([N+](=O)[O-])cc4)c3)n2)c1 | < 50 |
| C=CC(=O)Nc1ccc(Nc2ncnc(Nc3ccc4NN(=Cc4c3)Cc5ccccn5)n2)cc1 | < 50 |
| C=CCN(c1ccc(OCc2ccccc2)cc1)c1ncnc(Nc2ccc(NC(=O)C=C)cc2)n1 | < 50 |
| CC#CC(=O)Nc1cccc(Nc2ncnc(Nc3cc(Cl)cc4ccccc34)n2)c1 | < 50 |
| CC#CC(=O)Nc1cccc(Nc2ncnc(N(C)c3cc(Cl)ccc3C)n2)c1 | < 50 |
| C=CC(=O)Nc1cccc(Nc2ncnc(Nc3cccc(CC(=O)OC)c3)n2)c1 | < 50 |
| C=CC(=O)Nc1ccc(Nc2ncnc(N(CC)c3ccc(OC)c(OCCOC)c3)n2)cc1 | < 50 |
| C#CCC(=O)Nc1cccc(Nc2ncnc(NN3CCCc4c(Cl)cccc43)n2)c1 | < 50 |
| C=CC(=O)Nc1cccc(Nc2ncnc(N(CC)c3ccc(OCCC)c(OCCC)c3)n2)c1 | < 50 |
| C=CC(=O)Nc1ccc(Nc2ncnc(Nc3ccc(OCc4ccccc4)cc3)n2)cc1 | < 50 |
| C=CCN(c1cccc(Cl)c1)c1ncnc(Nc2cccc(NC(=O)C=C)c2)n1 | < 50 |
| C=CCN(c1ccc(OC)c(OC)c1)c1ncnc(Nc2cccc(NC(=O)C=C)c2)n1 | < 50 |
| C=CC(=O)N(CCCN1CCOCC1)c1cccc(Nc2ncnc(Nc3ccc(OCCO)cc3)n2)c1 | < 50 |
| CCN(c1ccc2NN(=Cc2c1)Cc3ccccn3)c4ncnc(Nc5cccc(NC(=O)C#CC)c5)n4 | < 50 |
| O=C(/C=C/c1cccc(Nc2ncnc(Nc3ccc4c(cnn4Cc4ccccc4)c3)n2)c1)NCCCN1CCOCC1 | < 50 |
| C=CC(=O)Nc1ccc(Nc2ncnc(N(CC)c3ccc(OCCO)cc3)n2)cc1 | < 50 |
| C=CC(=O)Nc1ccc(Nc2ncnc(NN3CCCc4cc(Cl)ccc43)n2)cc1 | < 50 |
| CC#CC(=O)Nc1cccc(Nc2ncnc(Nc3ccc(OCCO)cc3)n2)c1 | < 50 |
| C=CC(=O)Nc1cccc(Nc2ncnc(N(CC)c3ccc(OCC)c(OCC)c3)n2)c1 | < 50 |
| C=CC(=O)Nc1cc(Nc2ncnc(Nc3ccc4c(cnn4Cc4ccccc4)c3)n2)ccc1OCCCN1CCOCC1 | < 50 |
| C=CC(=O)Nc1ccc(Nc2ncnc(N(CC)C3CC3c3ccc(Cl)cc3)n2)cc1 (stereo not given) | < 50 |
